Assay results reported in publication PMC6272504, “Inhibitory Effects of Neochamaejasmin B on P-Glycoprotein in MDCK-hMDR1 Cells and Molecular Docking of NCB Binding in P-Glycoprotein” (Molecules, 2015).

Molecular target: T1, P-glycoprotein (Homo sapiens, UniProt P08183)
T1 construct: gene ABCB1
Assay: Rhodamine-123 accumulation kinetics (Lineweaver-Burk) and bidirectional transport in MDCK-hMDR1 cells
Format: cell-based

T1 sequence (P08183 whole entry): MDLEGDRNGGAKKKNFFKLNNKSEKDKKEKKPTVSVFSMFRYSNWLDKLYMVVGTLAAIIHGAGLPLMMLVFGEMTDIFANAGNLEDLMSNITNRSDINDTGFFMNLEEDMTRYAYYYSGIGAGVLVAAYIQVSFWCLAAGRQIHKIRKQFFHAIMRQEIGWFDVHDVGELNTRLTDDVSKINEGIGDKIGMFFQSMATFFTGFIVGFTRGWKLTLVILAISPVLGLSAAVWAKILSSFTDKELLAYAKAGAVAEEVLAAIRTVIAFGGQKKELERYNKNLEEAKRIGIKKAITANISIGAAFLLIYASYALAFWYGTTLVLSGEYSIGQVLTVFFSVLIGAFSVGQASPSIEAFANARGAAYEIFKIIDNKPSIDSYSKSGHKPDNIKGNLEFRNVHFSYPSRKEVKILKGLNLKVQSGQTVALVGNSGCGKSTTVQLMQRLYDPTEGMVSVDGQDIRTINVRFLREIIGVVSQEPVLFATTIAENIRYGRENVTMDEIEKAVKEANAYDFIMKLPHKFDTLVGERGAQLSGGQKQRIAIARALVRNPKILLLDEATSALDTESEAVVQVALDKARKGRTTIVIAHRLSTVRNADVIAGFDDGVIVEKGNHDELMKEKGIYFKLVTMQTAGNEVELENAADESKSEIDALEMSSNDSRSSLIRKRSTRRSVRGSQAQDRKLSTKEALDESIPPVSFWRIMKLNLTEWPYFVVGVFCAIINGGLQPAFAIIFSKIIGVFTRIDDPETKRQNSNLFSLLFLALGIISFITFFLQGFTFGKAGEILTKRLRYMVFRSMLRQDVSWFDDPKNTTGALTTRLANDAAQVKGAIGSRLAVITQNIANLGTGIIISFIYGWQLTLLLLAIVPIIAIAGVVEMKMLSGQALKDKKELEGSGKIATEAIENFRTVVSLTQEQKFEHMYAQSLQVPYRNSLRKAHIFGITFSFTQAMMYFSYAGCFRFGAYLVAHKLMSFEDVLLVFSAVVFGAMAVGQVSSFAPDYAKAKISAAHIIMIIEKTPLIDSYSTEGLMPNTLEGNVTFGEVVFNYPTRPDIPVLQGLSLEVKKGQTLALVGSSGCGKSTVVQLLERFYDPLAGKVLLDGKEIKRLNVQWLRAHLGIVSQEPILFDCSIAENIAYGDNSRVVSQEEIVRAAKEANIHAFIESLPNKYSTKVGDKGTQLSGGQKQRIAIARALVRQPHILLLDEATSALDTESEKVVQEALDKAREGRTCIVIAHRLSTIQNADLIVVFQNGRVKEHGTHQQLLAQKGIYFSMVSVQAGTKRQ

Ki: 45.2 µM
Structure (SMILES): O=C1c2c(O)cc(O)cc2O[C@H](c2ccc(O)cc2)[C@@H]1[C@@H]1C(=O)c2c(O)cc(O)cc2O[C@H]1c1ccc(O)cc1 [NCB, Neochamaejasmin B]
